# Results as given in ChEMBL document CHEMBL1159275, “Mycalolides D and E, new cytotoxic macrolides from a collection of the stony coral Tubastrea faulkneri” (1995).
# Assay: Cytotoxicity against human NCI60 cells
# Type: functional
# Conditions: read-out: LC50 (the source's name)
row,Structure (SMILES),CC50
1,CO[C@H]1C/C=C/c2nc(co2)-c2nc(co2)-c2nc(co2)[C@@H](OC)[C@@H](C)C(=O)/C=C/C[C@H](O)CC(=O)O[C@@H](C[C@H](OC)[C@@H](C)CC[C@@H](OC(=O)[C@@H](C)OC)[C@H](C)[C@H](OC(C)=O)[C@H](C)/C=C/N(C)C=O)[C@@H]1C [MYCALOLIDE C],2500 nM
2,COCC(OC)C(=O)OC(CCC(C)C(CC1OC(=O)CC(O)C/C=C/C(=O)CC(C)C(=O)NC(=O)c2coc(n2)-c2coc(n2)/C=C/CC(OC)C1C)OC)C(C)C(OC(C)=O)C(C)/C=C/N(C)C=O (configuration not stated) [MYCALOLIDE D],600 nM
